Results taken from paper PMC9871035, “Discovery of structural and functional transition sites for membrane-penetrating activity of sheep myeloid antimicrobial peptide-18” (Scientific Reports, 2023).
Where no end group is shown, it is not given here.

Experiments:
[1] = tested on: E. coli (KCTC 1682); assay: Confocal laser scanning microscopy of FITC-labeled peptides; assay type: cell-based, Escherichia coli; details: FITC-labeled peptide 10 μM, 37 ℃, 30 min
Description: (§1) E. coli (KCTC 1682) and S. aureus (KCTC 1621) were grown at mid-log phase and washed three times with PBS (pH 7.4). The bacteria were diluted at 10^6 CFU/ml and incubated with FITC-labeled peptides (10 μM) at 37 ℃ for 30 min. After incubation, this solution was washed thrice with PBS and was then transferred to a confocal dish. […] Fluorescent images were obtained with a 488 nm bandpass filter for FITC excitation.

[2] = tested on: S. aureus (KCTC 1621); assay: SYTOX Green uptake assay; assay type: cell-based, Staphylococcus aureus; details: 2 × MIC, SYTOX 0.1 μM, PBS pH 7.4
Description: The membrane permeabilization activity of the peptides was determined by using the SYTOX Green uptake assay, as described previously[33]. S. aureus (KCTC 1621) grown at 37 ℃ until the mid-log phase (OD600 = 0.4). The cell pellet was washed using PBS (pH 7.4) and was diluted to an OD600 = 0.05 in PBS (pH 7.4); SYTOX was added to the final concentration of 0.1 μM and this solution was pre-incubated in the dark at 4 ℃ for 16 h. Fluorescence was monitored using a F-4500 FL spectrophotometer (Hitachi, Japan) and excitation and emission wavelengths of 480 nm and 520 nm, respectively.

[3] = tested on: S. aureus (KCTC 1621) cytoplasmic membrane; assay: Membrane depolarization assay (diSC3-5); assay type: cell-based, Staphylococcus aureus; details: 2 × MIC, monitored over 1400 s
Description: The cytoplasmic membrane depolarization activity of the peptides was measured using the membrane potential sensitive dye diSC3-5, as previously described[31],[32]. Briefly, S. aureus (KCTC 1621) was grown at 37 ℃ with agitation until the mid-log phase (OD600 = 0.3) and was harvested by centrifugation. Cells are washed twice with a buffer solution (i.e., 20 mM Glucose, 5 mM HEPES, 100 mM KCl; pH 7.4) and were resuspended to an OD600 = 0.05 in the buffer. Membrane depolarization was monitored by recording changes in the intensity of fluorescence emission of diSC3-5 after peptide concentration.

[4] = Estimation of helicity from CD; assay type: physicochemical; details: peptide 100 μM, from [θ]mr at 222 nm; for % α-helix, H2O: H2O (10 mM sodium phosphate, pH 7.0)
Description: CD spectra were measured on a J-810 spectropolarimeter (JASCO) using a 1.0 mm path-length cell. […] Three scans were conducted from 190 to 260 nm and the data are expressed in terms of mean residue molar ellipticity [θ]mr. The mean residue ellipticity, [θ]mr (deg cm^2 dmol^-1), was calculated according to the equation [θ]mr = (100θ)/(clN), where θ is the measured ellipticity (mdeg), c is the sample concentration (mM), l is the path length (cm), and N is the number of amino acids. Percent α-helicity was calculated using the equation ([θ]mr222nm—3000)/(− 39,000 × 100)[29]. Reference values for [θ]mr222nm = 0 and 36,000 (deg cm^2 dmol^−1) were used for 0% and 100% helicity, respectively[30].

[5] = tested on: Gram-negative and Gram-positive bacteria; assay: MIC over the panel of six strains (GM, range); assay type: cell-based; details: six strains of Table 1; average value ± SD
Description: The antimicrobial activity of the peptides, i.e., their MIC values, were determined against Escherichia coli (KCTC 1682), Salmonella typhimurium (KCTC 1926), Pseudomonas aeruginosa (KCTC 1637), Bacillus subtilis (KCTC 3068), Staphylococcus epidermidis (KCTC 1917), Staphylococcus aureus (KCTC 1621), and Methicillin-resistant Staphylococcus aureus (CCARM 3089, 3090 and 3095) using broth microdilution in a 96-well plate according to existing methodologies[23]. Bacteria were grown at 37 ℃ on a spinner culture until a mid-log phase diluted to 2 × 10^6 CFU/ml in 1% peptone. The bacterial suspension was added to 100 μl of the sample solution (i.e., serial twofold dilution in 1% peptone). […] All experiments were performed in triplicate and included growth and sterility controls.

[6] = tested on: S. aureus (KCTC 1621); assay: Confocal laser scanning microscopy of FITC-labeled peptides; assay type: cell-based, Staphylococcus aureus; details: FITC-labeled peptide 10 μM, 37 ℃, 30 min
Description: as §1

| Substance | Localization of peptide in E. coli [1] | SYTOX Green uptake (fluorescence) [2] | Membrane depolarization of S. aureus (diSC3-5 fluorescence) [3] | % α-helix, 50% TFE [4] [%] | % α-helix, H2O [4] [%] | GM (geometric mean of MIC values from selected bacterial strains) [5] | Localization of peptide in S. aureus [6] |
| --- | --- | --- | --- | --- | --- | --- | --- |
| RALRRLARKIAHAVKKYG-NH2 [G2,7,13A] | likely bound to the cell membrane | induced the maximal fluorescence | induced a significant membrane depolarization | 44.4 | 5.7 | 4.3(± 2.9) μM | likely bound to the cell membrane |
| RGLRRLARKIAHAVKKYG-NH2 [G7,13A] | – | induced the maximal fluorescence | induced a significant membrane depolarization | 33.9 | 7.6 | 4.5(± 2.9) μM | – |
| RGLRRLG-NH2 [R1-G7] | – | – | – | 6.9 | 5.6 | > 64 µM | – |
